The values below come from ChEMBL document CHEMBL1201862, “PubChem BioAssay data set” (2004).

The source made the active and inactive calls.

The nature of assay [1]: inhibitors of HIV Env-driven cell fusion, dose response, cherry-pick (AID 652057). The assay is classed as functional, cell-based.
A short description of assay [2]: CEM21 lymphoblast cell cytotoxicity, dose response, cytotoxicity control for viral fusion inhibitor project, CellTiter-Glo luminescence, cherry-picked (AID 652042).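 Note: potency for signal decrease meaning cytotoxicity.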 In kind it is functional, cell-based. (ATP-based viability assays read luminescence as a measure of living cells.)
A short description of assay [3]: inhibitors of PGC1a acetylation in cells, dose response, cell-based, cherry-picked samples (AID 720514).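 Note: potency may reflect raised or lowered acetylation signal.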 In kind it is functional.
The nature of assay [4]: P. falciparum Dd2 growth inhibitors, dose response, SYBR Green, cherry-picked samples (AID 1159567). In kind it is functional, cell-based.
The next assay has as its target Paired box protein Pax-8 (Homo sapiens, UniProt Q06710). Nature of the assay: inhibitors of PAX8-driven TPO luciferase reporter, dose response, RMG-I cells, cherry-pick (AID 687027).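 Note: luciferase reporter driven by Pax8 target thyroperoxidase promoter measured by SteadyGlo luminescence.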 In kind it is functional, cell-based. For orientation: A reporter such as luciferase makes a cellular process visible.
The nature of assay [5]: A2780 ovarian cancer cell cytotoxicity, dose response, cytotoxicity control, plate reader, dry powder samples (AID 743046). In kind it is functional, cell-based.
The nature of assay [6]: NIH:OVCAR-3 ovarian cancer cell cytotoxicity, dose response, PAX8 inhibitor project, plate reader, dry powder samples (AID 743044). The assay is classed as functional, cell-based.
Assay [7] in a line: HEK293T cytotoxicity, dose response, cytotoxicity control for miR-122 modulator project, cell-based, inhibitor set, cherry-pick, set 2 (AID 720697). The assay is classed as functional.
The nature of assay [8]: T. cruzi growth inhibition in host cells, dose response, cell-based, plate reader, dry powder, set 2 (AID 652275). The assay is classed as functional.
Assay [9] in a line: MITF Orthogonal Assay: SK-MEL-5 CTG Assay Measured in Cell-Based System Using Plate Reader - 2084-02_Inhibitor_Dose_DryPowder_Activity_Set7. The assay is classed as functional.
A short description of assay [10]: MITF: Counter assay: A375 proliferation Measured in Cell-Based System Using Plate Reader - 2084-03_Inhibitor_Dose_DryPowder_Activity_Set8. In kind it is functional. The conditions noted are these: A-375.
A short description of assay [11]: TRPM1 promoter luciferase reporter signal decrease, dose response, MITF inhibitor project, cell-based, SK-MEL-5, dry powder, set 8 (AID 624430). In kind it is functional.
Assay [12] deals with T1, Oxysterols receptor LXR-beta (Homo sapiens, UniProt P55055).
T1 sequence (P55055 whole entry): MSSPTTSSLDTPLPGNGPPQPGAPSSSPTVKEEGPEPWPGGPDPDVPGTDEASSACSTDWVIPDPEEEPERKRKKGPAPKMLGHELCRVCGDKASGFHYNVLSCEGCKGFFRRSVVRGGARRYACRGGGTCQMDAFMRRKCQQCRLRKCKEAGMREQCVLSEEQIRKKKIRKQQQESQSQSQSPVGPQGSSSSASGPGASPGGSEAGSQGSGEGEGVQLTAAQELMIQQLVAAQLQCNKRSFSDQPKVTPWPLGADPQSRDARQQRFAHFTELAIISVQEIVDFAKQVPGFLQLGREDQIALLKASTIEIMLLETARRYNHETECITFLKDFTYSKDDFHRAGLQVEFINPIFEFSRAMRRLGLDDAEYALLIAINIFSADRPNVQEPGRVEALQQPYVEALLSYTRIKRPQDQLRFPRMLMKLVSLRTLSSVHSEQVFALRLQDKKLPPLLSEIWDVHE
In kind it is functional, cell-based.

Assay [13] can be described thus: cytotoxicity in OVCAR8 ovarian cancer cells, dose response, PAX8 project, cell-based, plate reader, dry powder samples (AID 743197). The assay is classed as functional. The conditions noted are these: OVCAR-8.
The next assay has as its target Albumin (Bos taurus, UniProt P02769). Nature of the assay: Counterscreen for inhibitors of T-cell receptor (TCR)-CD3 interaction: Fluorescence-based biochemical high throughput dose response assay to identify inhibitors of T-cell receptor (TCR)-CD3 interaction using a TAMRA-labeled BSA probe. The assay is classed as functional.
Assay [14] can be described thus: ADAM10 inhibitors, peptide cleavage, dose response, biochemical, QFRET (AID 743254).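 Note: ADAM10 enzyme with the DM2 quenched FRET peptide as substrate; EDANS fluorescence gain as the protease cuts the substrate; inhibitor potency against ADAM10 proteolytic activity.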
Assay [15] deals with Disintegrin and metalloproteinase domain-containing protein 17 (Homo sapiens, UniProt P78536). Nature of the assay: ADAM17 protease inhibitors, dose response, counter-screen for ADAM10 exosite inhibitor project, biochemical, quenched FRET substrate (AID 743253). (In general: The purpose of a counterscreen is to sort out artefacts and off-target activity.)
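Throughout, for EC50: agonist activity at LXR measured by a cell-based luminescence readout across a dose range, run as a counterscreen for daf-12 agonists; HEK293 cells with Gal4-LXR fusion and GAL4-driven luciferase reporter; potency for activation of Gal4-LXR reporter so compounds are agonists.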

Sequence of Disintegrin and metalloproteinase domain-containing protein 17 (P78536 whole entry, the tested form may be a part): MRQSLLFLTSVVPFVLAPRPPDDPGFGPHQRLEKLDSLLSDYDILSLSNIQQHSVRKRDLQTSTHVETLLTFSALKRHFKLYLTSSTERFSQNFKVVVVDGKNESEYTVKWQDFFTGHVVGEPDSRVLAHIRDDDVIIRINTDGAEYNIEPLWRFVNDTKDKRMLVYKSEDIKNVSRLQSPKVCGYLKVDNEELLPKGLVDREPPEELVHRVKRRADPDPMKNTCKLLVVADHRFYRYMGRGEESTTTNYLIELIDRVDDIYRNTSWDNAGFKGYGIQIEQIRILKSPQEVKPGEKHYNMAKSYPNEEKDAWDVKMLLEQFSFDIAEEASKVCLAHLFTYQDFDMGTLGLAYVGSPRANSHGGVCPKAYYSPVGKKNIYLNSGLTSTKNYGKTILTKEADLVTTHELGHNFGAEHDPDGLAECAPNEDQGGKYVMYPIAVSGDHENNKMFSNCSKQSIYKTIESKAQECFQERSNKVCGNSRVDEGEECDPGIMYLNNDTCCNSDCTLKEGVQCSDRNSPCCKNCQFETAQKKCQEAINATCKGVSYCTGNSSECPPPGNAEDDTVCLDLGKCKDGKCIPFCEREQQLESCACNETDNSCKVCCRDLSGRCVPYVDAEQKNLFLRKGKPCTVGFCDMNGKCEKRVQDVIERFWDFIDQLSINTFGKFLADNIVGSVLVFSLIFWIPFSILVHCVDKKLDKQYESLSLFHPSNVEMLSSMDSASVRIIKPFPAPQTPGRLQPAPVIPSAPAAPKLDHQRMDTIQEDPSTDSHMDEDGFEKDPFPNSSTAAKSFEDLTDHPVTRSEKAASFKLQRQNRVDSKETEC
Sequence of Paired box protein Pax-8 (Q06710 whole entry): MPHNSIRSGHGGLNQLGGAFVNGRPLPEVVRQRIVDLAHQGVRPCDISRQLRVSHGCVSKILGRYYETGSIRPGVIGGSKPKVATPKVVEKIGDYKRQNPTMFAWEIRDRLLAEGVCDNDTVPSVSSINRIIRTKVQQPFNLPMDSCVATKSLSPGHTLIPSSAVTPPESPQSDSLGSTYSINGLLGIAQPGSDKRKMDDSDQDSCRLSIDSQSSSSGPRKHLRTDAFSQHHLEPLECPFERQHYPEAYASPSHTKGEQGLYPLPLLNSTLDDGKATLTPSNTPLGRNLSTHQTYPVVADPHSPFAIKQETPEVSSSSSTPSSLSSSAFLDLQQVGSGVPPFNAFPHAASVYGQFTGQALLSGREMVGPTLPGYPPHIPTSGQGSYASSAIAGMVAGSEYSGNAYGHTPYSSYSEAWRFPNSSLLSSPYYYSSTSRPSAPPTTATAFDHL
Sequence of Albumin (P02769 whole entry): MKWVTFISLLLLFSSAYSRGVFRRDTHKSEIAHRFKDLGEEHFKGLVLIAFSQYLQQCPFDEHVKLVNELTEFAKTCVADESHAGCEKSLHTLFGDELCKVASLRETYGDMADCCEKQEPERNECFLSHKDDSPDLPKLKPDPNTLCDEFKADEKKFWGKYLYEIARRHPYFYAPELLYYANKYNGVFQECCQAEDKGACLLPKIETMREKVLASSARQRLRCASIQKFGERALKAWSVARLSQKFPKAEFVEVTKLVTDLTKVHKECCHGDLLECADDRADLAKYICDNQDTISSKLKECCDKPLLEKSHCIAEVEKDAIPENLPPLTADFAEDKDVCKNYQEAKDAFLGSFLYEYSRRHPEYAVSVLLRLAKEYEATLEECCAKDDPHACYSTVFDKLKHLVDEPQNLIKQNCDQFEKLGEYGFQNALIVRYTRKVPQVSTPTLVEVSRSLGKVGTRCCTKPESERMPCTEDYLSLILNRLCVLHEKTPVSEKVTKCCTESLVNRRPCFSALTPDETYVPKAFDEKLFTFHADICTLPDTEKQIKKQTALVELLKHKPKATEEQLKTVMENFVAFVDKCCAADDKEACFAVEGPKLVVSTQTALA

Consider `Cc1ccc(-c2ccc3c(c2)O[C@@H](CN(C)C(=O)C2CCCCC2)[C@H](C)CN([C@H](C)CO)S3(=O)=O)cc1`, for which the AC50 in assay [1] was 20.7 µM (active); in assay [2] it was 22 µM (active); in [3], 15 µM (active); in assay [4], 3.07 µM (active).
As for `C[C@H](CO)N1C[C@H](C)[C@@H](CN(C)S(=O)(=O)c2ccccc2)OCCCC[C@H](C)Oc2ccc(NS(=O)(=O)c3ccc(Cl)cc3)cc2C1=O`, the values for the half-maximal activity concentration (AC50) (on Paired box protein Pax-8; in assay [5]; in assay [6]) were 5.23 µM (active), 49.8 µM (active) and 32.2 µM (active), respectively.
For `CCNC(=O)C[C@@H]1CC[C@H]2[C@H](COc3ccc(NC(=O)c4cccc(C(F)(F)F)c4)cc3C(=O)N2C)O1`, the concentration at half-maximal activity (AC50) in [7] was 3.05 µM (active).
Take `COc1cccc(-c2ccc([C@H]3[C@H](CO)N4CCCCN(CC5CCOCC5)C[C@@H]34)cc2)c1`: the half-maximal activity concentration (AC50) in [8] was 1.88 µM (active).
Consider `CC1=C(Nc2ccc(Cl)cc2)C(=O)c2ccccc2C1=O`, for which the AC50 in assay [9] was 0.802 µM (active); in assay [10], > 70 µM (inactive); in [11], 40.7 µM (active).
For the compound `OC[C@H]1[C@H](c2ccc(-c3ccccc3)cc2)[C@@H]2CN(Cc3cncnc3)CCCCN12`, the AC50 in assay [8] was 0.185 µM (active).
`CCCn1/c(=N/C(=O)c2ccco2)c(C(=O)OCC)cc2c(=O)n3ccccc3nc21`: the EC50 in [12] is > 67.5 µM (inactive).
For the compound `COc1ccc(NC(=O)N2CCCCN3[C@@H](CO)[C@@H](c4ccc(C5=CCCC5)cc4)[C@@H]3C2)cc1`, the concentration at half-maximal activity (AC50) is 52.9 µM (active) in assay [5], 41.6 µM (active) in [6] and 64.1 µM (active) in [13].
Take `COc1cc(/C=N/NC(=O)COc2ccc(Cl)cc2)ccc1OS(=O)(=O)c1ccc(C)cc1`: the IC50 on Albumin was > 94.1 µM (inactive); in assay [14], > 69.5 µM (inactive); in [15] it was > 69.5 µM (inactive).

By AC50 is commonly meant the concentration at which the activity in the assay is half-maximal. What is called EC50 is the midpoint of the concentration-response curve. A word on the IC50: it is the midpoint of a concentration-inhibition curve.
